Data as given in BindingDB's records for doi:10.1016/j.chembiol.2003.11.012 (Universit&Agrave, 2003).

Legend:
Test in all cases: Inhibition Assay
Conditions in all cases: pH 7; 20 °C
[1] = target: Bifunctional dihydrofolate reductase-thymidylate synthase (Leishmania major, UniProt P07382)
Method: (§1) The inhibition assay pattern for all of the compounds was determined by steady-state kinetic analysis of the dependence of the TS enzyme activity on folate concentration at various concentration.

Thymidylate synthase [2] = target: Thymidylate synthase (Escherichia coli (strain K12), UniProt P0A884)
Sequence of Thymidylate synthase (Escherichia coli (strain K12), UniProt P0A884) (P0A884 whole entry): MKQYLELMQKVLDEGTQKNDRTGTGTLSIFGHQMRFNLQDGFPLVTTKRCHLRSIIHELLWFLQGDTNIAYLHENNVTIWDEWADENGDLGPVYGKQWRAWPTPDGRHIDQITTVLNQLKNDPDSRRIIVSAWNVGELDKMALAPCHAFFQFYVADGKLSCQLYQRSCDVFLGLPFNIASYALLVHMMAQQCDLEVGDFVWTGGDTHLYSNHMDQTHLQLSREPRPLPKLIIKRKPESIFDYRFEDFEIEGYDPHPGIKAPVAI
Method: as §1

Thymidylate synthase [3] = target: Thymidylate synthase (Homo sapiens, UniProt P04818)
Sequence of Thymidylate synthase (Homo sapiens, UniProt P04818) (P04818 whole entry): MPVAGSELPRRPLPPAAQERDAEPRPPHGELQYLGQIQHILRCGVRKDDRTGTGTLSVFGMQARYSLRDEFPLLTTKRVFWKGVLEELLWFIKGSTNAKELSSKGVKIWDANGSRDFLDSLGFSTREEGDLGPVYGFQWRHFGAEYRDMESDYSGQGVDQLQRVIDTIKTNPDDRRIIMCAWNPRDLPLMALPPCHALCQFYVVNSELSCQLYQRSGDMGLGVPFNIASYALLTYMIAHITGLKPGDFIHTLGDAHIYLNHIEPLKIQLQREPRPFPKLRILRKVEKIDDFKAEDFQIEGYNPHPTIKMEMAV
Method: as §1

Thymidylate synthase [4] = target: T1, Thymidylate synthase (Lacticaseibacillus casei, UniProt P00469)
T1 sequence (P00469 whole entry): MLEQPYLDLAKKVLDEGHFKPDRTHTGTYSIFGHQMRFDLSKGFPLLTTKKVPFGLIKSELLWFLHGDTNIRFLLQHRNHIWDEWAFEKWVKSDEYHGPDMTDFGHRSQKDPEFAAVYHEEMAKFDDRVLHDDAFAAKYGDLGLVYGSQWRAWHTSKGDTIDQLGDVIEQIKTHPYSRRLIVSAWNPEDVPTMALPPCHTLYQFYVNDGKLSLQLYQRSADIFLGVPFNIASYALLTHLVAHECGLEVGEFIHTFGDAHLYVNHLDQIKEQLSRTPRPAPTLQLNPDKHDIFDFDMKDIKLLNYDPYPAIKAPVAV
Method: as §1

Thymidylate synthase [5] = target: T2, Thymidylate synthase (Pneumocystis carinii, UniProt P13100)
T2 sequence (P13100 whole entry): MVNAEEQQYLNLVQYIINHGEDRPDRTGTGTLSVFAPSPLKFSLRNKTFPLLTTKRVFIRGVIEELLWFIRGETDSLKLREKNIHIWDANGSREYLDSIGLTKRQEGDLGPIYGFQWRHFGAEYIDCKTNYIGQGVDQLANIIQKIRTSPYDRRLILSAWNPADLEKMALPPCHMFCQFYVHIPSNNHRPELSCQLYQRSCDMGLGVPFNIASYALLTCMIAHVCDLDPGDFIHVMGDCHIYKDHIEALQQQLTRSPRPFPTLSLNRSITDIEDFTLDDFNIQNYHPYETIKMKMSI
Method: as §1

Sequence of Bifunctional dihydrofolate reductase-thymidylate synthase (P07382 whole entry): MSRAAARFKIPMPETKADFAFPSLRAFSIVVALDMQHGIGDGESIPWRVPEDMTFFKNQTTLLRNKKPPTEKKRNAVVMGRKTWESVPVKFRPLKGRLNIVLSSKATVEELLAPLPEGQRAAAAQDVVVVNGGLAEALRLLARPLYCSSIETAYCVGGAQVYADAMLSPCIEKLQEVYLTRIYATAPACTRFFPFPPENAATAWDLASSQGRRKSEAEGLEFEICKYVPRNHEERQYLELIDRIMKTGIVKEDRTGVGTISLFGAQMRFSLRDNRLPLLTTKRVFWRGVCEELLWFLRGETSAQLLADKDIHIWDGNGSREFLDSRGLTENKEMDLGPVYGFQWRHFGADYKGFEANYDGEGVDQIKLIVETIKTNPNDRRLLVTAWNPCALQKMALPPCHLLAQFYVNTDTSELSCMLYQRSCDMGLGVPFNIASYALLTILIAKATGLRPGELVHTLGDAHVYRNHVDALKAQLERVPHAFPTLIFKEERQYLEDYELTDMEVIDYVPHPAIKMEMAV

SMILES	Ki [1]	Ki (Thymidylate synthase [2])	Ki (Thymidylate synthase [3])	Ki (Thymidylate synthase [4])	Ki (Thymidylate synthase [5])
C#CCN(Cc1ccc2nc(N)[nH]c(=O)c2c1)c1ccc(C(=O)N[C@@H](CCC(=O)O)C(=O)O)cc1	0.08 µM				
O=C1OC(c2ccc(O)c(Br)c2)(c2ccc(O)c(Br)c2)c2ccc(Cl)c3cccc1c23 [Phenolnaphthalein derivative, 2]	> 1080 µM	4.1 µM	> 245 µM	0.8 µM	28 µM
O=C1OC(c2ccc(O)c(Br)c2)(c2ccc(O)c(Br)c2)c2c1ccc1ccccc21 [Phenolnaphthalein derivative, 4]	63 µM	0.9 µM	> 132 µM		> 132 µM
O=C1OC(c2cc(Br)c(O)c(Br)c2)(c2cc(Br)c(O)c(Br)c2)c2c1ccc1ccccc21 [Phenolnaphthalein derivative, 5]	41 µM		> 245 µM		32.7 µM

Other lines, results leading:

Ki [1]	Ki (Thymidylate synthase [2])	Ki (Thymidylate synthase [3])	Ki (Thymidylate synthase [4])	Ki (Thymidylate synthase [5])	SMILES
> 1080 µM					O=C1OC(c2ccc(O)c(Cl)c2)(c2ccc(O)c(Cl)c2)c2cccc3cccc1c23
> 1780 µM					O=C1OC(c2ccc(O)c(F)c2)(c2ccc(O)c(F)c2)c2cccc3cccc1c23 [Phenolnaphthalein derivative, 1]
> 1080 µM	1.1 µM	> 245 µM	1.8 µM	22 µM	O=C1OC(c2ccc(O)c(F)c2)(c2ccc(O)c(F)c2)c2ccc(Cl)c3cccc1c23 [Phenolnaphthalein derivative, 3]
